Assay results taken from patent US11911386B2, “Methods of treating B-cell proliferative disorder” (BeiGene Switzerland GmbH, priority 2022, dated 2024).
“And” between values parts separate entries of the source, which are not always exact repeats. Identical values can stand only once. Like-named read-outs stand apart in the source and are kept apart here.

Experiments:
[1] = multiple doses of a moderate CYP3A inhibitor; cited from earlier work
panel of 370 kinases = assay: Kinome profiling at 100xIC50 (BTK) concentrations; assay type: biochemical; settings: 100×IC50 (BTK) concentration
[2] = any grade, listed as Zanubrutinib
[3] = grade ≥3, listed as Zanubrutinib
[4] = leading to treatment discontinuation

## C=CC(=O)N1CCC([C@@H]2CCNc3c(C(N)=O)c(-c4ccc(Oc5ccccc5)cc4)nn32)CC1 [zanubrutinib, (S)-7-(1-acryloylpiperidin-4-yl)-2-(4-phenoxyphenyl)-4,5,6,7-tetrahydropyrazolo[1,5-a]pyrimidine-3-carboxamide]
ITT
  Treatment discontinuation due to adverse events: 16.2%
Any grade
  Anemia AESI: 50 (15.4) n (%)
  Anemia TEAE: 49 (15.1) n (%)
  Arthralgia TEAE: 47 (14.5) n (%)
  Atrial fibrillation TEAE: 15 (4.6) n (%)
  Atrial fibrillation and flutter AESI: 5.2 n (%)
  COVID-19 TEAE: 23.1 n (%)
  Contusion TEAE: 44 (13.6) n (%)
  Cough TEAE: 38 (11.7) n (%)
  Diarrhea TEAE: 16.0 n (%)
  Fatigue TEAE: 31 (9.6) n (%)
  Hemorrhage AESI: 137 (42.3) n (%)
  Hypertension AESI: 23.5 n (%)
  Hypertension TEAE: 21.9 n (%)
  Infections AESI: 71.3 n (%)
  Major hemorrhage AESI: 12 (3.7) n (%)
  Muscle spasms TEAE: 10 (3.1) n (%)
  Neutropenia AESI: 29.3 n (%)
  Neutropenia TEAE: 22.8 n (%)
  Opportunistic infection AESI: 7 (2.2%) n (%)
  Pneumonia TEAE: 34 (10.5) n (%)
  Pyrexia TEAE: 27 (8.3) n (%)
  Rash TEAE: 33 (10.2) n (%)
  Secondary primary malignancies AESI: 40 (12.3) n (%)
  Skin cancers AESI: 21 (6.5) n (%)
  Thrombocytopenia AESI: 42 (13.0) n (%)
  Tumor lysis syndrome AESI: 1 (0.3) n (%)
  Upper respiratory tract infection TEAE: 21.0 n (%)
  ≥1 AESI: 294 (90.7) n (%)
  ≥1 TEAE: 318 (98.1) n (%)
[2]
  Atrial fibrillation and flutter AESI: 17 (5.2) n (%)
  COVID-19 TEAE: 75 (23.1) n (%)
  Diarrhea TEAE: 52 (16.0) n (%)
  Hypertension AESI: 76 (23.5) n (%)
  Hypertension TEAE: 71 (21.9) n (%)
  Infections AESI: 231 (71.3) n (%)
  Neutropenia AESI: 95 (29.3) n (%)
  Neutropenia TEAE: 74 (22.8) n (%)
  Opportunistic infection AESI: 7 (2.2) n (%)
  Upper respiratory tract infection TEAE: 68 (21.0) n (%)
Cardiac AE
  Acute coronary syndrome: 1 (0.3)
  Acute myocardial infarction: 1 (0.3)
  Angina pectoris: 4 (1.2)
  Aortic valve incompetence: 0
  Aortic valve stenosis: 1 (0.3)
  Arrhythmia: 1 (0.3)
  Arrhythmia supraventricular: 3 (0.9)
  Arteriosclerosis coronary artery: 1 (0.3)
  Atrial fibrillation: 15 (4.6)
  Atrial flutter: 2 (0.6)
  Atrial tachycardia: 0
  Atrioventricular block: 0
  Atrioventricular block first degree: 5 (1.5)
  Bradyarrhythmia: 1 (0.3)
  Bradycardia: 0
  Bundle branch block left: 3 (0.9)
  Bundle branch block right: 2 (0.6)
  Cardiac arrest: 0
  Cardiac discomfort: 0
  Cardiac disorder: 0
  Cardiac failure: 5 (1.5)
  Cardiac failure acute: 0
  Cardiac failure chronic: 0
  Cardiac failure congestive: 1 (0.3)
  Congestive cardiomyopathy: 0
  Coronary artery disease: 2 (0.6)
  Coronary artery insufficiency: 1 (0.3)
  Defect conduction intraventricular: 1 (0.3)
  Dilatation atrial: 1 (0.3)
  Extrasystoles: 1 (0.3)
  Left atrial hypertrophy: 1 (0.3)
  Left ventricular dysfunction: 1 (0.3)
  Left ventricular failure: 1 (0.3)
  Mitral valve incompetence: 1 (0.3)
  Myocardial fibrosis: 1 (0.3)
  Myocardial infarction: 1 (0.3)
  Myocardial ischemia: 3 (0.9)
  Palpitations: 9 (2.8)
  Pericardial effusion: 1 (0.3)
  Sinoatrial block: 1 (0.3)
  Sinus arrhythmia: 1 (0.3)
  Sinus bradycardia: 5 (1.5)
  Sinus node dysfunction: 0
  Sinus tachycardia: 4 (1.2)
  Supraventricular extrasystoles: 4 (1.2)
  Supraventricular tachycardia: 2 (0.6)
  Tachycardia: 1 (0.3)
  Ventricular arrhythmia: 2 (0.6)
  Ventricular extrasystoles: 3 (0.9)
  Ventricular fibrillation: 0
  Ventricular hypokinesia: 1 (0.3)
Grade ≥3
  Anemia AESI: 7 (2.2) n (%)
  Atrial fibrillation and flutter AESI: 2.5 n (%)
  Hemorrhage AESI: 11 (3.4) n (%)
  Hypertension AESI: 15.1 n (%)
  Infections AESI: 26.5 n (%)
  Major hemorrhage AESI: 11 (3.4) n (%)
  Neutropenia AESI: 68 (21.0) n (%)
  Opportunistic infection AESI: 5 (1.5) n (%)
  Secondary primary malignancies AESI: 22 (6.8) n (%)
  Skin cancers AESI: 7 (2.2) n (%)
  Thrombocytopenia AESI: 11 (3.4) n (%)
  Tumor lysis syndrome AESI: 1 (0.3) n (%)
  ≥1 AESI: 186 (57.4) n (%)
[3]
  Atrial fibrillation and flutter AESI: 8 (2.5) n (%)
  Hypertension AESI: 49 (15.1) n (%)
  Infections AESI: 86 (26.5) n (%)
Grade ≥3 TEAE
  Anemia: 7 (2.2)
  Atrial fibrillation: 6 (1.9)
  Blood pressure increased: 4 (1.2)
  COVID-19: 22 (6.8)
  COVID-19 pneumonia: 23 (7.1)
  Neutrophil count decreased: 17 (5.2)
  Pneumonia: 19 (5.9)
  Syncope: 9 (2.8)
  Thrombocytopenia: 9 (2.8)
human, in vivo
  AEs leading to dose reduction: 40 (12.3)
  Bronchopulmonary aspergillosis: 2 (0.6)
  COVID-19 TEAE Grade 3 or higher: 40 (12.3) n (%)
  Fungal abscess central nervous system: 1 (0.3)
  Herpes ophthalmic: 0
  Ophthalmic herpes zoster: 0
  Osteomyelitis fungal: 0
  Pneumonia fungal: 2 (0.6)
  Pneumonia legionella: 0
  Pulmonary tuberculosis: 0
In vivo
  AEs leading to dose interruption: 162 (50.0)
  AEs leading to treatment discontinuation: 50 (15.4)
  Deaths due to cardiac events: no patient receiving zanubrutinib died due to a cardiac disorder AE
  Grade ≥3 TEAE: 218 (67.3)
  Serious AEs: 136 (42.0)
[4]
  Atrial fibrillation: 0
  Cardiac arrest: 0
  Cardiac failure: 0
  Cardiac failure acute: 0
  Congestive cardiomyopathy: 0
  Myocardial infarction: 0
  Palpitations: 0
  Ventricular extrasystoles: 1 (0.3)
  Ventricular fibrillation: 0
Opportunistic infection AESI
  Pneumocystis jirovecii pneumonia: 1 (0.3)
  Pneumonia cryptococcal: 1 (0.3)
[1]
  Increase in zanubrutinib Cmax and AUC: 2- to 3 fold and 2 to 3 fold
Panel of 370 kinases
  Off-target kinases inhibited: seven
